pIC50: −log10 of the molar value.
These compounds were tested against NAMPT (Homo sapiens (Human), UniProt P43490) (assay: Biochemical inhibition assay (NAMPT enzymatic reaction, NMN quantified by mass spectrometry)). Conditions: not given.
Chain of NAMPT (P43490 whole entry): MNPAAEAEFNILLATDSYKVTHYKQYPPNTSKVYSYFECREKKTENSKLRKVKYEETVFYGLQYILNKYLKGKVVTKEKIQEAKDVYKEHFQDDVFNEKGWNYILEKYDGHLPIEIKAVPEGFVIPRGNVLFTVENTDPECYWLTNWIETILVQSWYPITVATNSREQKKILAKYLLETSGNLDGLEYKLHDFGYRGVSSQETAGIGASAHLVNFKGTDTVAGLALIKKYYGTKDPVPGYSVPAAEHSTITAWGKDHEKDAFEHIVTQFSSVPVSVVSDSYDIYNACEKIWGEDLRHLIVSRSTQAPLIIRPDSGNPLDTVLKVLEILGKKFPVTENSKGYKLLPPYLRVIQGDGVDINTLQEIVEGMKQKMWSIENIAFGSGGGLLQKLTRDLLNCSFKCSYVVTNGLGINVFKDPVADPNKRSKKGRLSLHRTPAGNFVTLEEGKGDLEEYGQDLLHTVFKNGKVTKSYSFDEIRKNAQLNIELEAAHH
In the case of `Cn1nc(C(=O)N2CCC3(CC2)CC3CNC(=O)c2cc3ccncc3o2)cc1C(F)(F)F` (stereo not drawn) [Example 131, N-[[6-[1-methyl-5-(trifluoromethyl]pyrazole-3-carbonyl]-6-azaspiro[2.5]octan-2-yl]methyl]furo[2,3-c]pyridine-2-carboxamide], the pIC50 was 6.45.
Work on `CC(C)(C)OC(=O)N1CCC2(CC1)CC2CNC(=O)c1cnn2nccc2c1` (stereo not drawn) [Example 383, tert-Butyl 2-[(pyrazolo[1,5-b]pyridazine-5-carbonylamino)methyl]-6-azaspiro[2.5]octane-6-carboxylate] yielded a pIC50 of 7.80.

Each compound was assayed on A2780 cells (assay: In-vitro cell proliferation assay (SRB, 72 hours)). Conditions: A2780 cells, 72 hours, SRB; read-out: Cell Proliferation (IC50).
Type: cell-based
Method: Assay 2: In-Vitro Cell Proliferation Assay
Assay Method. […] The compounds were then further diluted to 10× final concentration in culture media, whereupon 20 μL of each dilution was added to the plated cells with controls (e.g. DMSO and blank) to make a final volume of 200 μL. The final DMSO concentration in each well was 0.1%. The plates were then incubated for 72 hours at 37° C. in a 5% CO2 incubator. The number of viable cells was then assessed using sulforhodamine B (SRB) assay. Cells were fixed at 4° C. for 1 hour with the addition of 50 μL 30% trichloroacetic acid (TCA) to make a final concentration of 6% TCA. The plates were washed four times with H2O and allowed to dry for at least 1 hour, whereupon 100 μL of a 4% SRB in 1% acetic acid solution was added to each well and incubated at room temperature for at least 30 min. The plates were then washed three times with 1% acetic acid, dried, and treated with 100 μL of 10 mM Tris-Base solution. The plates were then read in a microplate reader at an absorbance of 570 nm. Background was generated on a separate plate with media only.
Determination of IC50 Values. First, the signals from the background plate were averaged, then the background was subtracted from the test plates.
`Cc1nc(C)c(C(=O)N2CCC3(CC2)CC3CNC(=O)c2cc3ccncc3o2)o1` (stereo not drawn) [Example 385, N-[[6-(2,4-dimethyloxazole-5-carbonyl)-6-azaspiro[2.5]octan-2-yl]methyl]furo[2,3-c]pyridine-2-carboxamide] showed a pIC50 of 7.77.
Work on “N-[[6-(2,2- dimethylcyclopropanecarbonyl)- 6-azaspiro[2.5]octan-2- yl]methyl]furo[2,3-c]pyndine-2- carboxamide [Example 373]” yielded a pIC50 of 8.15.

Same assay, conditions: Homo sapiens, A2780, 72 h, A2780 cells, 72 hours, SRB; read-out: Cell Proliferation (IC50)
`Cn1nc(C(=O)N2CCC3(CC2)CC3CNC(=O)c2cc3ccncc3o2)cc1C(F)(F)F` (stereo not drawn) [Example 131, N-[[6-[1-methyl-5-(trifluoromethyl]pyrazole-3-carbonyl]-6-azaspiro[2.5]octan-2-yl]methyl]furo[2,3-c]pyridine-2-carboxamide] was tested, and the pIC50 was 6.49.
`CC(C)(C)CS(=O)(=O)N1CCC2(CC1)CC2CNC(=O)c1cc2cnccc2[nH]1` (stereo not drawn) [Example 379, N-[[6-(2,2-dimethylpropylsulfonyl)-6-azaspiro[2.5]octan-2-yl]methyl]-1H-pyrrolo[3,2-c]pyridine-2-carboxamide] showed a pIC50 of 5.70.
Work on `CC(C)(C)OC(=O)N1CCC2(CC1)CC2CNC(=O)c1cnn2nccc2c1` (stereo not drawn) [Example 383, tert-Butyl 2-[(pyrazolo[1,5-b]pyridazine-5-carbonylamino)methyl]-6-azaspiro[2.5]octane-6-carboxylate] yielded a pIC50 of 5.70.
Compound `CC(C)(O)COCC(=O)N1CCC2(CC1)CC2CNC(=O)c1cc2cnccc2[nH]1` (stereo not drawn) [Example 387, N-[[6-[2-(2-hydroxy-2-methyl-propoxy)acetyl]-6-azaspiro[2.5]octan-2-yl]methyl]-1H-pyrrolo[3,2-c]pyridine-2-carboxamide] has a pIC50 of 6.27.
For `Cc1nc(C(F)(F)F)c(C(=O)N2CCC3(CC2)CC3CNC(=O)N2Cc3ccncc3C2)s1` (stereo not drawn) [Example 388, N-[[6-[2-methyl-4-(trifluoromethyl]thiazole-5-carbonyl]-6-azaspiro[2.5]octan-2-yl]methyl]-1,3-dihydropyrrolo[3,4-c]pyridine-2-carboxamide], the pIC50 was 8.90.
With `CC1(C)CC1C(=O)N1CCC2(CC1)CC2CNC(=O)N1Cc2ccncc2C1` (stereo not drawn) [Example 389, N-[[6-(2,2-dimethylcyclopropanecarbonyl)-6-azaspiro[2.5]octan-2-yl]methyl]-1,3-dihydropyrrolo[3,4-c]pyridine-2-carboxamide] the pIC50 was 9.24.
In the case of `CC(C)(C)OC(=O)N1CCC2(CC1)CC2CNC(=O)NCc1ccc2nccn2c1` (stereo not drawn) [Example 392, tert-butyl 2-[(imidazo[1,2-a]pyridin-6-ylmethylcarbamoylamino)methyl]-6-azaspiro[2.5]octane-6-carboxylate], the pIC50 was 5.70.
Work on `Nc1ccc(CC(=O)N2CCC3(CC2)CC3CNC(=O)N2Cc3ccncc3C2)cn1` (stereo not drawn) [Example 394, N-[[6-[2-(6-Amino-3-pyridyl)acetyl]-6-azaspiro[2.5]octan-2-yl]methyl]-1,3-dihydropyrrolo[3,4-c]pyridine-2-carboxamide] yielded a pIC50 of 7.84.
`O=C(NCC1CC12CCN(C(=O)N1CCOCC1)CC2)N1Cc2ccncc2C1` (stereo not drawn) [Example 395, N-[[6-(morpholine-4-carbonyl)-6-azaspiro[2.5]octan-2-yl]methyl]-1,3-dihydropyrrolo[3,4-c]pyridine-2-carboxamide] was tested, and the pIC50 was 7.61.
In the case of `CC(C)(O)CCC(=O)N1CCC2(CC1)CC2CNC(=O)c1cc2cnccc2[nH]1` (stereo not drawn) [Example 397, N-[[6-(4-hydroxy-4-methyl-pentanoyl)-6-azaspiro[2.5]octan-2-yl]methyl]-1H-pyrrolo[3,2-c]pyridine-2-carboxamide], the pIC50 was 6.05.
`O=C(NCC1CC12CCN(C(=O)c1cnccc1C(F)(F)F)CC2)N1Cc2ccncc2C1` (stereo not drawn) [Example 398, N-[[6-[4-(trifluoromethyl]pyridine-3-carbonyl]-6-azaspiro[2.5]octan-2-yl]methyl]-1,3-dihydropyrrolo[3,4-c]pyridine-2-carboxamide] was tested, and the pIC50 was 9.14.
Work on `CC1(O)CC(CC(=O)N2CCC3(CC2)CC3CNC(=O)c2cc3cnccc3[nH]2)C1` (stereo not drawn) [Example 400, N-[[6-[2-(3-hydroxy-3-methyl-cyclobutyl)acetyl]-6-azaspiro[2.5]octan-2-yl]methyl]-1H-pyrrolo[3,2-c]pyridine-2-carboxamide] yielded a pIC50 of 6.65.
Compound `CC(C)(C)OC(=O)N1CCC2(CC1)CC2CNC(=O)c1ccc2nccn2n1` (stereo not drawn) [Example 402, tert-butyl 2-[(imidazo[1,2-b]pyridazine-6-carbonylamino)methyl]-6-azaspiro[2.5]octane-6-carboxylate] has a pIC50 of 5.70.
Work on `CC1(CC(=O)N2CCC3(CC2)CC3CNC(=O)N2Cc3ccncc3C2)CCN(CC(F)(F)F)CC1` (stereo not drawn) [Example 403, N-[[6-[2-[4-Methyl-1-(2,2,2-trifluoroethyl)-4-piperidyl]acetyl]-6-azaspiro[2.5]octan-2-yl]methyl]-1,3-dihydropyrrolo[3,4-c]pyridine-2-carboxamide] yielded a pIC50 of 8.54.
With `CC(C)(C)OC(=O)N1CCC2(CC1)CC2CNC(=O)N1Cc2cnc(N)cc2C1` (stereo not drawn) [Example 406] the pIC50 was 5.70.
In the case of `O=C(Cc1cncnc1)N1CCC2(CC1)CC2CNC(=O)N1Cc2ccncc2C1` (stereo not drawn) [Example 407, N-[[6-(2-pyrimidin-5-ylacetyl)-6-azaspiro[2.5]octan-2-yl]methyl]-1,3-dihydropyrrolo[3,4-c]pyridine-2-carboxamide], the pIC50 was 7.14.
`O=C(NCC1CC12CCN(C(=O)c1ccccc1)CC2)c1cc2ccncc2o1` (stereo not drawn) [Example 411, N-((6-benzoyl-6-azaspiro[2.5]octan-2-yl)methyl]furo[2,3-c]pyridine-2-carboxamide] gave a pIC50 of 5.70.
With `Cc1ncoc1C(=O)N1CCC2(CC1)CC2CNC(=O)N1Cc2ccncc2C1` (stereo not drawn) [Example 415, N-[[6-(4-methyloxazole-5-carbonyl)-6-azaspiro[2.5]octan-2-yl]methyl]-1,3-dihydropyrrolo[3,4-c]pyridine-2-carboxamide] the pIC50 was 7.85.
With `CC(C)OC(=O)N1CCC2(CC1)CC2CNC(=O)c1cc2ccncc2o1` (stereo not drawn) [Example 416, isopropyl 2-[(furo[2,3-c]pyridine-2-carbonylamino)methyl]-6-azaspiro[2.5]octane-6-carboxylate] the pIC50 was 6.34.
With `CC1(OC(=O)N2CCC3(CC2)CC3CNC(=O)c2cc3ccncc3o2)COC1` (stereo not drawn) [Example 417, (3-methyloxetan-3-yl) 2-[(furo[2,3-c]pyridine-2-carbonylamino)methyl]-6-azaspiro[2.5]octane-6-carboxylate] the pIC50 was 6.08.

From patent US10730889B2, “Amido spirocyclic amide and sulfonamide derivatives” (Forma TM, LLC, priority 2012, dated 2020)
